Measured values as given in the NIST ThermoML archive (doi:10.1016/j.jct.2004.02.001).
Values joined by “and” are separate entries in the source; they are usually repeats but may differ in a detail not shown here. Equal entries are not always repeated. Numbers after ± are expanded uncertainties.

Tests used:
[1] = for vapor or sublimation pressure: Calculated from knudsen effusion weight loss; for Triple point temperature: DTA
[2] = Molar enthalpy of transition or fusion; conditions: DSC

CCCCc1ccc(C(=O)O)cc1 [4-butylbenzoic acid]
[1], Crystal 1
Conditions | vapor or sublimation pressure
333.16 K | 0.000164 ± 8e-06 kPa and 0.000162 ± 8e-06 kPa
335.16 K | 0.000211 ± 1.1e-05 kPa and 0.000212 ± 1.1e-05 kPa
337.14 K | 0.000263 ± 1.3e-05 kPa and 0.000262 ± 1.3e-05 kPa and 0.000261 ± 1.3e-05 kPa
339.17 K | 0.000323 ± 1.6e-05 kPa and 0.000328 ± 1.6e-05 kPa and 0.00033 ± 1.7e-05 kPa
341.17 K | 0.000422 ± 2.1e-05 kPa and 0.00042 ± 2.1e-05 kPa and 0.000408 ± 2e-05 kPa
343.16 K | 0.00052 ± 2.6e-05 kPa and 0.000522 ± 2.6e-05 kPa
345.15 K | 0.000645 ± 3.2e-05 kPa and 0.000629 ± 3.2e-05 kPa and 0.000622 ± 3.1e-05 kPa
347.13 K | 0.000804 ± 4e-05 kPa and 0.000786 ± 3.9e-05 kPa and 0.00078 ± 3.9e-05 kPa
349.15 K | 0.000994 ± 5e-05 kPa and 0.000968 ± 4.8e-05 kPa and 0.000978 ± 4.9e-05 kPa

Conditions | Molar enthalpy of transition or fusion, Crystal 1 [kJ/mol] | Molar enthalpy of transition or fusion, Crystal 2 [kJ/mol] | Molar enthalpy of transition or fusion, Nematic liquid crystal [kJ/mol] | Triple point temperature, Crystal 1 [K] | Triple point temperature, Crystal 2 [K] | Triple point temperature, Nematic liquid crystal [K]
[1] | – | – | – | 374.6 ± 0.5 | 309.64 ± 0.5 | 387.98 ± 0.5
[2] | 11.6 ± 0.31 | 4.7 ± 0.23 | 0.76 ± 0.16 | – | – | –

CCc1ccc(C(=O)O)cc1 [4-ethylbenzoic acid]
[1], Crystal
Conditions | vapor or sublimation pressure
321.17 K | 0.000214 ± 1.1e-05 kPa and 0.000211 ± 1.1e-05 kPa
323.16 K | 0.000272 ± 1.4e-05 kPa and 0.000265 ± 1.3e-05 kPa and 0.000263 ± 1.3e-05 kPa
325.22 K | 0.000347 ± 1.7e-05 kPa and 0.000335 ± 1.7e-05 kPa
327.17 K | 0.000419 ± 2.1e-05 kPa and 0.000418 ± 2.1e-05 kPa and 0.000436 ± 2.2e-05 kPa
329.34 K | 0.00055 ± 2.8e-05 kPa and 0.000542 ± 2.7e-05 kPa and 0.000527 ± 2.6e-05 kPa
331.2 K | 0.000666 ± 3.3e-05 kPa and 0.000651 ± 3.3e-05 kPa and 0.000637 ± 3.2e-05 kPa
333.14 K | 0.000826 ± 4.1e-05 kPa and 0.000818 ± 4.1e-05 kPa and 0.000803 ± 4e-05 kPa
335.25 K | 0.00103 ± 0.0001 kPa and 0.00101 ± 0.0001 kPa and 0.001 ± 5e-05 kPa

Crystal
Conditions | Molar enthalpy of transition or fusion [kJ/mol] | Triple point temperature [K]
[1] | – | 385.2 ± 0.5
[2] | 12.8 ± 0.33 | –

CCCCCCCc1ccc(C(=O)O)cc1 [4-heptylbenzoic acid]
[1], Crystal 1
Conditions | vapor or sublimation pressure
353.16 K | 0.000119 ± 6e-06 kPa and 0.000121 ± 6e-06 kPa and 0.000116 ± 6e-06 kPa
355.19 K | 0.000149 ± 7e-06 kPa and 0.000151 ± 8e-06 kPa
357.19 K | 0.000191 ± 1e-05 kPa and 0.000193 ± 1e-05 kPa and 0.000189 ± 9e-06 kPa
359.18 K | 0.000239 ± 1.2e-05 kPa and 0.00024 ± 1.2e-05 kPa
361.17 K | 0.000312 ± 1.6e-05 kPa and 0.0003 ± 1.5e-05 kPa and 0.000304 ± 1.5e-05 kPa
363.2 K | 0.000392 ± 2e-05 kPa and 0.000381 ± 1.9e-05 kPa
365.18 K | 0.000484 ± 2.4e-05 kPa and 0.000482 ± 2.4e-05 kPa and 0.000475 ± 2.4e-05 kPa
367.14 K | 0.000608 ± 3e-05 kPa and 0.000602 ± 3e-05 kPa and 0.000595 ± 3e-05 kPa
369.2 K | 0.000771 ± 3.9e-05 kPa and 0.000764 ± 3.8e-05 kPa and 0.000751 ± 3.8e-05 kPa

Conditions | Molar enthalpy of transition or fusion, Crystal 1 [kJ/mol] | Molar enthalpy of transition or fusion, Crystal 2 [kJ/mol] | Molar enthalpy of transition or fusion, Nematic liquid crystal [kJ/mol] | Triple point temperature, Crystal 1 [K] | Triple point temperature, Crystal 2 [K] | Triple point temperature, Nematic liquid crystal [K]
[1] | – | – | – | 374.52 ± 0.5 | 320.17 ± 0.5 | 393.11 ± 0.5
[2] | 14.3 ± 0.47 | 7.4 ± 0.24 | 1 ± 0.12 | – | – | –

CCCCCCc1ccc(C(=O)O)cc1 [4-hexylbenzoic acid]
[1], Crystal 1
Conditions | vapor or sublimation pressure
347.08 K | 0.00015 ± 8e-06 kPa and 0.000151 ± 8e-06 kPa and 0.000146 ± 7e-06 kPa
349.19 K | 0.000193 ± 1e-05 kPa and 0.000191 ± 1e-05 kPa and 0.000189 ± 9e-06 kPa
351.19 K | 0.000245 ± 1.2e-05 kPa and 0.000243 ± 1.2e-05 kPa and 0.000232 ± 1.2e-05 kPa
353.14 K | 0.000298 ± 1.5e-05 kPa and 0.000293 ± 1.5e-05 kPa and 0.000304 ± 1.5e-05 kPa
355.25 K | 0.000391 ± 2e-05 kPa and 0.000388 ± 1.9e-05 kPa and 0.000381 ± 1.9e-05 kPa
357.16 K | 0.000485 ± 2.4e-05 kPa and 0.00047 ± 2.4e-05 kPa and 0.000468 ± 2.3e-05 kPa
359.27 K | 0.000619 ± 3.1e-05 kPa and 0.000614 ± 3.1e-05 kPa and 0.000605 ± 3e-05 kPa
361.35 K | 0.000768 ± 3.8e-05 kPa and 0.000764 ± 3.8e-05 kPa and 0.000736 ± 3.7e-05 kPa
363.14 K | 0.000951 ± 4.8e-05 kPa and 0.000946 ± 4.7e-05 kPa and 0.000919 ± 4.6e-05 kPa

Conditions | Molar enthalpy of transition or fusion, Crystal 1 [kJ/mol] | Molar enthalpy of transition or fusion, Crystal 3 [kJ/mol] | Triple point temperature, Crystal 1 [K] | Triple point temperature, Nematic liquid crystal [K]
[1] | – | – | 370.64 ± 0.5 | 385.87 ± 0.5
[2] | 0.95 ± 0.14 | 12.9 ± 0.34 | – | –

Cc1ccc(C(=O)O)cc1 [4-methylbenzoic acid]
[1], Crystal
Conditions | vapor or sublimation pressure
319.68 K | 0.000137 ± 7e-06 kPa and 0.000133 ± 7e-06 kPa
322.14 K | 0.000182 ± 9e-06 kPa and 0.000179 ± 9e-06 kPa and 0.000174 ± 9e-06 kPa
324.62 K | 0.000235 ± 1.2e-05 kPa and 0.00023 ± 1.2e-05 kPa
327.08 K | 0.000309 ± 1.5e-05 kPa and 0.000307 ± 1.5e-05 kPa and 0.000312 ± 1.6e-05 kPa
329.73 K | 0.000421 ± 2.1e-05 kPa and 0.000415 ± 2.1e-05 kPa and 0.000408 ± 2e-05 kPa
332.11 K | 0.000536 ± 2.7e-05 kPa and 0.000529 ± 2.6e-05 kPa and 0.000515 ± 2.6e-05 kPa
334.63 K | 0.00071 ± 3.6e-05 kPa and 0.000689 ± 3.4e-05 kPa and 0.000685 ± 3.4e-05 kPa
337.33 K | 0.00092 ± 4.6e-05 kPa and 0.000891 ± 4.5e-05 kPa

Crystal
Conditions | Molar enthalpy of transition or fusion [kJ/mol] | Triple point temperature [K]
[1] | – | 452.34 ± 0.5
[2] | 22.5 ± 0.52 | –

CCCCCCCCc1ccc(C(=O)O)cc1 [4-octylbenzoic acid]
[1]
Conditions | vapor or sublimation pressure
356.67 K, Crystal 2 | 8.5e-05 ± 4e-06 kPa and 8.6e-05 ± 4e-06 kPa
358.22 K, Crystal 2 | 0.000102 ± 5e-06 kPa and 0.000103 ± 5e-06 kPa
359.66 K, Crystal 2 | 0.000127 ± 6e-06 kPa and 0.000126 ± 6e-06 kPa
361.16 K, Crystal 2 | 0.00015 ± 8e-06 kPa and 0.000148 ± 7e-06 kPa
362.71 K, Crystal 2 | 0.000182 ± 9e-06 kPa and 0.000181 ± 9e-06 kPa
364.25 K, Crystal 2 | 0.000213 ± 1.1e-05 kPa and 0.000211 ± 1.1e-05 kPa
365.68 K, Crystal 2 | 0.000255 ± 1.3e-05 kPa and 0.000253 ± 1.3e-05 kPa
367.46 K, Crystal 1 | 0.000302 ± 1.5e-05 kPa and 0.000305 ± 1.5e-05 kPa
368.85 K, Crystal 1 | 0.000356 ± 1.8e-05 kPa and 0.000355 ± 1.8e-05 kPa
370.35 K, Crystal 1 | 0.000426 ± 2.1e-05 kPa and 0.000424 ± 2.1e-05 kPa
371.86 K, Crystal 1 | 0.000504 ± 2.5e-05 kPa and 0.000502 ± 2.5e-05 kPa

Conditions | Molar enthalpy of transition or fusion, Crystal 1 [kJ/mol] | Molar enthalpy of transition or fusion, Crystal 2 [kJ/mol] | Molar enthalpy of transition or fusion, Crystal 3 [kJ/mol] | Molar enthalpy of transition or fusion, Nematic liquid crystal [kJ/mol] | Triple point temperature, Crystal 1 [K] | Triple point temperature, Crystal 2 [K] | Triple point temperature, Crystal 3 [K] | Triple point temperature, Nematic liquid crystal [K]
[1] | – | – | – | – | 373.25 ± 0.5 | 366.56 ± 0.5 | 305.46 ± 0.5 | 385.54 ± 0.5
[2] | 14.3 ± 0.47 | 0.47 ± 0.11 | 5.4 ± 0.25 | 1.2 ± 0.26 | – | – | – | –

CCCCCc1ccc(C(=O)O)cc1 [4-pentylbenzoic acid]
[1], Crystal 1
Conditions | vapor or sublimation pressure
341.16 K | 0.000174 ± 9e-06 kPa and 0.000177 ± 9e-06 kPa and 0.000169 ± 8e-06 kPa
343.16 K | 0.000223 ± 1.1e-05 kPa and 0.000214 ± 1.1e-05 kPa
345.16 K | 0.000279 ± 1.4e-05 kPa and 0.000271 ± 1.4e-05 kPa
347.18 K | 0.000358 ± 1.8e-05 kPa and 0.000355 ± 1.8e-05 kPa and 0.000345 ± 1.7e-05 kPa
349.18 K | 0.000454 ± 2.3e-05 kPa and 0.000455 ± 2.3e-05 kPa and 0.000439 ± 2.2e-05 kPa
351.17 K | 0.000553 ± 2.8e-05 kPa and 0.000544 ± 2.7e-05 kPa and 0.000533 ± 2.7e-05 kPa
353.16 K | 0.000694 ± 3.5e-05 kPa and 0.000692 ± 3.5e-05 kPa and 0.000682 ± 3.4e-05 kPa
355.16 K | 0.000852 ± 4.3e-05 kPa and 0.000854 ± 4.3e-05 kPa and 0.000828 ± 4.1e-05 kPa
357.16 K | 0.00109 ± 0.00011 kPa and 0.00106 ± 0.00011 kPa

Conditions | Molar enthalpy of transition or fusion, [2] [kJ/mol] | Triple point temperature, [1] [K]
Crystal 1 | 11.4 ± 0.34 | 362.45 ± 0.5
Nematic liquid crystal | 1.1 ± 0.45 | 399.3 ± 0.5

CCCc1ccc(C(=O)O)cc1 [4-propylbenzoic acid]
[1], Crystal 1
Conditions | vapor or sublimation pressure
331.16 K | 0.000166 ± 8e-06 kPa and 0.000162 ± 8e-06 kPa and 0.000159 ± 8e-06 kPa
333.14 K | 0.000207 ± 1e-05 kPa
335.17 K | 0.000259 ± 1.3e-05 kPa and 0.000252 ± 1.3e-05 kPa and 0.000246 ± 1.2e-05 kPa
337.17 K | 0.000321 ± 1.6e-05 kPa and 0.000318 ± 1.6e-05 kPa
339.15 K | 0.000397 ± 2e-05 kPa
341.16 K | 0.000501 ± 2.5e-05 kPa and 0.000485 ± 2.4e-05 kPa
343.16 K | 0.00062 ± 3.1e-05 kPa
345.14 K | 0.000772 ± 3.9e-05 kPa and 0.000774 ± 3.9e-05 kPa and 0.000768 ± 3.8e-05 kPa
347.16 K | 0.000968 ± 4.8e-05 kPa and 0.000944 ± 4.7e-05 kPa

Conditions | Molar enthalpy of transition or fusion, [2] [kJ/mol] | Triple point temperature, [1] [K]
Crystal 1 | 19.7 ± 0.58 | 415.41 ± 0.5
Crystal 2 | 3.39 ± 0.36 | 298.48 ± 0.5
